Reference: paper PMC11808136, “Screening and identification of host signaling pathways for alleviating influenza-induced production of pro-inflammatory cytokines, IP-10, IL-8, and MCP-1, using a U937 cell-based influenza model” (Frontiers in Microbiology, 2025)
Read-outs that look alike come from different tables or passages of the source.

Key:
[1] = test system: MCP-1 production in influenza virus-infected U937 cells (H1N1); assay: cells; format: cell-based; conditions: for IC50: U-937, read-out: IC50 MCP-1
[2] = test system: IP-10 production in influenza virus-infected U937 cells (H1N1); assay: cells; format: cell-based
[3] = test system: IL-8 production in influenza virus-infected U937 cells (H1N1); assay: cells; format: cell-based, Human; conditions: for EC50: Supplemental Table 1, read-out: EC50 IL-8; for IC50: U-937
U937 cells = conditions: secondary screen, Supplemental Table 1
in vitro = conditions: human
JAK1 = JAK1 (Homo sapiens, UniProt P23458); assay: Cell-free kinase activity assay, JAK1
JAK2 = molecular target: T1, JAK2 (Homo sapiens, UniProt O60674); assay: Cell-free kinase activity assay, JAK2; format: biochemical
T1 construct: purchased KinaseProfiler (Eurofin, Brussels, Belgium)

p38 = p38 (Homo sapiens, UniProt Q16539); assay: Cell-free kinase activity assay, p38; format: biochemical; conditions: p38 kinases in vitro
[4] = secondary screen, Supplemental Table 1, read-out: EC50 MCP-1
[5] = secondary screen, Supplemental Table 1, read-out: EC50 IP-10
[6] = Homo sapiens, U-937, read-out: EC50 MCP-1
[7] = CC50, secondary screen, Supplemental Table 1
[8] = Homo sapiens, U-937, read-out: EC50 IP-10
[9] = Homo sapiens, U-937, secondary screen
[10] = Homo sapiens, U-937, secondary screen, Supplemental Table 1, read-out: EC50 MCP-1
[11] = Homo sapiens, U-937, secondary screen, Supplemental Table 1, read-out: EC50 IP-10

T1 sequence (O60674 whole entry): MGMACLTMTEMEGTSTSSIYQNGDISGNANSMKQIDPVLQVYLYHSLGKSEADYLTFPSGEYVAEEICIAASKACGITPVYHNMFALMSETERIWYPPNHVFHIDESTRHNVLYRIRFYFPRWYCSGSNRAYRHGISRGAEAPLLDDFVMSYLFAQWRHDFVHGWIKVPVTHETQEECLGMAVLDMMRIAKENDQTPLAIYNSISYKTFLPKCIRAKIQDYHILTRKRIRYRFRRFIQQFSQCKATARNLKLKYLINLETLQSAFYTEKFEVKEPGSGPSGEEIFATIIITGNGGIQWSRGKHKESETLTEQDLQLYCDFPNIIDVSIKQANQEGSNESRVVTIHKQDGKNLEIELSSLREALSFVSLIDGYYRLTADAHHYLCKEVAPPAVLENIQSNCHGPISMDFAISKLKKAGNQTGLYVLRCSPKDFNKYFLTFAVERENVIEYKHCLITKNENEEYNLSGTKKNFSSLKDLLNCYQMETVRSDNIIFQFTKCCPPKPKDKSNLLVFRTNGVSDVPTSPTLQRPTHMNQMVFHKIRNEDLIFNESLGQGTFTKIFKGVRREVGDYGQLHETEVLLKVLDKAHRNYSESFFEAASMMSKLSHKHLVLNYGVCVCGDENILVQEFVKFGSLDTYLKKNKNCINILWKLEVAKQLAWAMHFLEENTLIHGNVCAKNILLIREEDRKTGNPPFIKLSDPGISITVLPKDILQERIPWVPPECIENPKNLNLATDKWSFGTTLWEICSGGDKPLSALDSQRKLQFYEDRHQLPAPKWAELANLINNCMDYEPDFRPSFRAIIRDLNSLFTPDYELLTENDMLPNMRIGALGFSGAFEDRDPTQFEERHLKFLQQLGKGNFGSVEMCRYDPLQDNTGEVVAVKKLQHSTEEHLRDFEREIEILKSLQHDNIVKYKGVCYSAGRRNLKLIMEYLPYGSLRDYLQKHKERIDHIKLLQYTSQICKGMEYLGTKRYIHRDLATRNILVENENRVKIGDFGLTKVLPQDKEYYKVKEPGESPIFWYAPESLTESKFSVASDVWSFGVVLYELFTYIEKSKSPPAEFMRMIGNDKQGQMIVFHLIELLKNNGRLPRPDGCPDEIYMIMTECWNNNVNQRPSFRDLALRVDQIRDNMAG
Chain of JAK1 (P23458 whole entry): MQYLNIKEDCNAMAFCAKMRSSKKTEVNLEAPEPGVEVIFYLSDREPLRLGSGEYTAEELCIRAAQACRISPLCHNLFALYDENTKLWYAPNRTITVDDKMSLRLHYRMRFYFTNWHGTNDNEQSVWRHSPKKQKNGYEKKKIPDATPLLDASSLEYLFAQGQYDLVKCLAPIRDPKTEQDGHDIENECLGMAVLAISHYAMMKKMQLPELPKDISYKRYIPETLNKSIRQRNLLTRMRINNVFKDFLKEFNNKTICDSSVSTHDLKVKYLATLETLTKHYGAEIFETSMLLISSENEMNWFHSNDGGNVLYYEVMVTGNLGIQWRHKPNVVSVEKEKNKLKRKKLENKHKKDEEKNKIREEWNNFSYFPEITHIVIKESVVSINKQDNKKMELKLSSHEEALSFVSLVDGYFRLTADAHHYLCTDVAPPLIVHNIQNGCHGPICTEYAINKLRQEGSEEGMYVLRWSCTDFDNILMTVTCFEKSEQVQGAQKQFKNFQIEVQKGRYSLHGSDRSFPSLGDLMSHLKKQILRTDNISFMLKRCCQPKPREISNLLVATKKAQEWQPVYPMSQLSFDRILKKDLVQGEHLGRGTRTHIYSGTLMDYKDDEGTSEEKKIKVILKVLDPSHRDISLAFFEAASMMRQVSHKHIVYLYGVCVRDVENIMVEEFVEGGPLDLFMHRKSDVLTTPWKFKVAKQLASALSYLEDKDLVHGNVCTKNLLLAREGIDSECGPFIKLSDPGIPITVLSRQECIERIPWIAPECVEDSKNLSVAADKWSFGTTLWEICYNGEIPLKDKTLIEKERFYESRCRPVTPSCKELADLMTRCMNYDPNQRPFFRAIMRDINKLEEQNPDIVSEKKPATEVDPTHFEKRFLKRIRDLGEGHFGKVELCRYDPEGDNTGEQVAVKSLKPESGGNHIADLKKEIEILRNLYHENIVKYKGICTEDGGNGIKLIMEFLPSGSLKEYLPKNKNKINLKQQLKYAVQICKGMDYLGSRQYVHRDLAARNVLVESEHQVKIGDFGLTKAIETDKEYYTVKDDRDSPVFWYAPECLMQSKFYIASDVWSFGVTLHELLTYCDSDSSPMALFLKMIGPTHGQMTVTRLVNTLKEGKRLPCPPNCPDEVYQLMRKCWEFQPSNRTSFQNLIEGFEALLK
Chain of p38 (Q16539 whole entry): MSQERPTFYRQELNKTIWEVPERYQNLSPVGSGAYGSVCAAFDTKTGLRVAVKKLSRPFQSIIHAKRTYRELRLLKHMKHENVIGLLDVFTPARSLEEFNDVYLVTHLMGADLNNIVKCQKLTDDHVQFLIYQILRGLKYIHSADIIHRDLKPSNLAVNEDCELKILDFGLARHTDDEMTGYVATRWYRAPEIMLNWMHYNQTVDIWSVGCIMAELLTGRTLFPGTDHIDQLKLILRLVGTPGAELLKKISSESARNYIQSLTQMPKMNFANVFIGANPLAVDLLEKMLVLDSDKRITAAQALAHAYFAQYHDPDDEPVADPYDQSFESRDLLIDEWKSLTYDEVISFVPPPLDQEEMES

Question: With `Cc1ccc(NC(=O)c2cccc(C(C)(C)C#N)c2)cc1Nc1ccc2ncn(C)c(=O)c2c1` [AZ 628] as the molecule, how does the EC50 [1, 4] read?
Answer: 180 nM

Question: What about the EC50 [2, 5] of the same molecule?
Answer: 970 nM

Question: And the EC50 ([3]; secondary screen)?
Answer: 100 nM

Question: What about the CC50 (U937 cells) of the same molecule?
Answer: > 100000 nM

Question: Which EC50 [1, 6] does the source give for `Cc1cc(Nc2nc(N[C@@H](C)c3ccc(F)cc3)c(C#N)cc2F)n[nH]1` [AZ 960] here?
Answer: < 5 nM

Question: What about the CC50 (in vitro; [7]) of the same molecule?
Answer: 6000 nM

Question: And the EC50 [2, 8]?
Answer: 10 nM

Question: What about the EC50 [3, 9] of the same molecule?
Answer: < 5 nM

Question: With `Cc1ccc(-n2nc(C(C)(C)C)cc2NC(=O)Nc2ccc(OCCN3CCOCC3)c3ccccc23)cc1` [BIRB 796, Doramapimod] as the molecule, how does the EC50 [1, 6] read?
Answer: 10000 nM

Question: What about the IC50 ([1]; Homo sapiens) of the same molecule?
Answer: 10000 nM

Question: What about the CC50 (in vitro) of the same molecule?
Answer: > 100000 nM

Question: And the EC50 [2, 8]?
Answer: 9200 nM

Question: And the IC50 ([3]; Homo sapiens)?
Answer: 5200 nM

Question: And the EC50 [3, 9]?
Answer: 5220 nM

Question: Which results are given for `O=C(Nc1cccc(Nc2ncc(Br)c(NCCc3cnc[nH]3)n2)c1)N1CCCC1` [BX-912]?
Answer: EC50 [1, 4]: 360 nM; EC50 [2, 5]: 1050 nM; EC50 ([3]; secondary screen): 410 nM; CC50 (U937 cells): > 100000 nM

Question: Which EC50 [1, 6] does the source give for `Cc1ccc(NC(=O)c2ccc(CN3CC[C@H](N(C)C)C3)c(C(F)(F)F)c2)cc1Nc1nccc(-c2cncnc2)n1` [Bafetinib (INNO-406), Bafetinib] here?
Answer: 860 nM

Question: What about the CC50 (in vitro; [7]) of the same molecule?
Answer: 100000 nM

Question: What about the EC50 [2, 8] of the same molecule?
Answer: 410 nM

Question: What about the EC50 [3, 9] of the same molecule?
Answer: 590 nM

Question: Which results are given for `CN1CCN(c2cccc(Nc3nc4c(-c5ccc(S(C)(=O)=O)cc5)cccn4n3)c2)CC1` [CEP-33779]?
Answer: EC50 [1, 4]: 240 nM; EC50 [2, 5]: 220 nM; EC50 ([3]; secondary screen): 360 nM; CC50 (U937 cells): 10500 nM

Question: Which results are given for `CC#CC(=O)Nc1ccc2ncnc(Nc3cccc(Br)c3)c2c1` [CL-387785 (EKI-785)]?
Answer: EC50 [1, 4]: 640 nM; EC50 [2, 5]: 410 nM; EC50 ([3]; secondary screen): 420 nM; CC50 (U937 cells): 7090 nM

Question: With `C=CC(=O)Nc1cccc(Nc2nc(Nc3ccc(Oc4ccnc(C(=O)NC)c4)cc3)ncc2F)c1` [CNX-774] as the molecule, how does the EC50 [1, 4] read?
Answer: 160 nM

Question: And the EC50 [2, 5]?
Answer: 1460 nM

Question: What about the EC50 ([3]; secondary screen) of the same molecule?
Answer: 10 nM

Question: And the CC50 (U937 cells)?
Answer: 15500 nM

Question: With `N#CCNC(=O)c1ccc(-c2ccnc(Nc3ccc(N4CCOCC4)cc3)n2)cc1` [CYT387] as the molecule, how does the EC50 [1, 10] read?
Answer: 30 nM

Question: And the CC50 (in vitro; [7])?
Answer: 5400 nM

Question: And the EC50 [2, 11]?
Answer: 480 nM

Question: And the EC50 [3, 9]?
Answer: 300 nM

Question: Which EC50 [1, 10] does the source give for `CCS(=O)(=O)N1CCN(c2ccc(Nc3ncc(C(N)=O)c(NC4CC4)n3)cc2)CC1` [Cerdulatinib (PRT062070, PRT2070), Cerdulatinib] here?
Answer: 20 nM

Question: And the CC50 (in vitro; [7])?
Answer: 3500 nM

Question: What about the EC50 [2, 11] of the same molecule?
Answer: 50 nM

Question: What about the EC50 [3, 9] of the same molecule?
Answer: < 5 nM

Question: What does the source list for `CC[C@@](C)(Nc1ccnc(-c2c[nH]c3ncccc23)n1)C(=O)NCC(F)(F)F` [Decernotinib]?
Answer: EC50 [1, 6]: 50 nM; CC50 (in vitro; [7]): 50000 nM; EC50 [2, 8]: 100 nM; IC50 ([2]; Homo sapiens, U-937, read-out: IC50 IP-10): 100 nM; EC50 [3, 9]: 20 nM; IC50 (JAK1): 13 nM; JAK1 activity (JAK1; cell-free kinase assay): inhibited; IC50 (JAK2): 90 nM; JAK2 activity (JAK2): inhibited

Question: What does the source list for `C=CC(=O)Nc1ccc(CN2C(=O)N(c3cc(OC)cc(OC)c3)Cc3cnc(Nc4ccc(N5CCN(C)CC5)cc4)nc32)cc1` [FIIN-2]?
Answer: EC50 [1, 4]: 140 nM; EC50 [2, 5]: 320 nM; EC50 ([3]; secondary screen): 30 nM; CC50 (U937 cells): 16700 nM

Question: For `COc1cc(Nc2ncc(F)c(Nc3ccc4c(n3)N(COP(=O)(O)O)C(=O)C(C)(C)O4)n2)cc(OC)c1OC` [Fostamatinib (R788), Fostamatinib], which EC50 [1, 10] is on record?
Answer: 170 nM

Question: What about the CC50 (in vitro; [7]) of the same molecule?
Answer: 40000 nM

Question: And the EC50 [2, 11]?
Answer: 500 nM

Question: And the EC50 [3, 9]?
Answer: 340 nM

Question: What does the source list for `Cc1ccc(C(=O)Nc2ccc(CN3CCN(C)CC3)c(C(F)(F)F)c2)cc1C#Cc1cnc2[nH]ncc2c1` [GZD824]?
Answer: EC50 [1, 10]: < 5 nM; CC50 (in vitro; [7]): 4800 nM; EC50 [2, 11]: < 5 nM; EC50 [3, 9]: < 5 nM

Question: Which EC50 [1, 4] does the source give for `O=C(c1ccc(Nc2nccc(-c3cc4ccccc4s3)n2)cc1)N1CCC(N2CCCC2)CC1` [IKK-16 (IKK Inhibitor VII)] here?
Answer: < 5 nM

Question: What about the EC50 [2, 5] of the same molecule?
Answer: < 5 nM

Question: What about the EC50 ([3]; secondary screen) of the same molecule?
Answer: < 5 nM

Question: And the CC50 (U937 cells)?
Answer: 8900 nM

Question: What does the source list for `O=C(Nc1cc(C(F)(F)F)cc(C(F)(F)F)c1)c1cc(Cl)ccc1O` [IMD 0354]?
Answer: EC50 [1, 10]: 60 nM; CC50 (in vitro): 1100 nM; EC50 [2, 11]: 80 nM; EC50 [3, 9]: 20 nM

Question: Which EC50 [1, 4] does the source give for `CC(C)n1nc(-c2ccc3oc(N)nc3c2)c2c(N)ncnc21` [INK 128 (MLN0128)] here?
Answer: 40 nM

Question: And the EC50 [2, 5]?
Answer: 120 nM

Question: And the CC50 (U937 cells)?
Answer: 5900 nM

Question: With `CC(C)(C)Cn1c(N)nc2ccc(-c3[nH]c(C(C)(C)C)nc3-c3ccc(F)cc3)nc21` [LY2228820] as the molecule, how does the EC50 [1, 6] read?
Answer: 2230 nM

Question: And the IC50 ([1]; Homo sapiens)?
Answer: 2200 nM

Question: And the CC50 (in vitro; [7])?
Answer: 50000 nM

Question: What about the EC50 [2, 8] of the same molecule?
Answer: 3700 nM

Question: What about the IC50 (p38) of the same molecule?
Answer: 60 nM

Question: And the IC50 ([3]; Homo sapiens)?
Answer: 5 nM

Question: And the EC50 [3, 9]?
Answer: < 5 nM

Question: Which EC50 [1, 10] does the source give for `Cc1cc(Nc2cc(CN3CCOCC3)c3nc(C)c(Cc4ccc(Cl)cc4F)n3n2)n[nH]1` [LY2784544] here?
Answer: < 5 nM

Question: And the CC50 (in vitro; [7])?
Answer: 26000 nM

Question: What about the EC50 [2, 11] of the same molecule?
Answer: 10 nM

Question: What about the EC50 [3, 9] of the same molecule?
Answer: < 5 nM
